Measurements: patent EP3820879B1, “PHOSPHORUS-CONTAINING PRODRUGS OF GEMCITABINE” (Changchun Changcheng Pharmaceutical Technology Co., LTD, priority 2018, dated 2020)

Assay: Mouse pharmacokinetic study: liver concentrations of dFdC and dFdU at 2h
Assay type: in vivo, C57BL/6 mice
Details: i.v., Gemcitabine 15 mg/kg or Compound 4 at equivalent dose, Fig. 2
Method: C57BL/6 mice used in this experiment were purchased from Beijing Vital River Laboratory Animal Technology Co., Ltd., and male mice with a body weight in the range of 16~19 g were tested for administration. The animals were housed with appropriate air conditions (temperature: 20~25 °C; humidity: 40%~70%; light/dark cycle: 12 hours), and were provided with the food and water ad lib.
The solution media for IV administration were DMSO: 30% solutol HS-15:saline = 10:10:80 (v/v/v). Test substances were dissolved in the media to obtain a clear solution, and filtered through PTFE to get a colorless clear solution for IV administration.
The solution media for oral administration were DMSO: 30% solutol HS-15:saline = 10:10:80 (v/v/v). […]
The pharmacokinetic (PK) profile of liver-targeted gemcitabine (dFdC) prodrug according to Formula I (i.e., Compound 4) was evaluated in male […] mice following intravenous administration (i.v.) at an equivalent dose to 15 mg/kg of Gemcitabine or following oral administration (PO or i.g.) at a dose of 80 mg/kg.
Blood samples of designated animals (n = 3/time point/compound) were taken at 0.083, 0.25, 0.5, 1, 2, 4, and 8 hours following i.v. administration, and at 0.25, 0.5, 1, 2, 4, 8 and 24 hours following PO administration, respectively. […] Pharmacokinetic parameters were calculated using WinNonlin software (Pharsight Corp., Mountain View, CA).

- dFdC levels in the liver: no detectable dFdC levels
- dFdU levels in the liver: significant levels of dFdU
SMILES: Nc1ccn([C@@H]2O[C@H](CO)[C@@H](O)C2(F)F)c(=O)n1 [Gemcitabine, 2',2'-difluoro-2'-deoxycytidine]
